system: hearing loss from noise exposure; assay: not given; conditions: after a transient threshold shift; cited from earlier work

Row | Structure (SMILES) | cochlear synaptopathy after a transient threshold shift
1 | O=C(COc1ccc(Cl)cc1)NC1CCC(NC(=O)COc2ccc(Cl)cc2)CC1 (stereo not shown) [ISRIB] | can prevent cochlear synatopathy after a transient threshold shift

same assay, conditions: mice, noise exposure; cited from earlier work

Row | Structure (SMILES) | hearing loss from noise exposure (permanent threshold shift)
2 | O=C(COc1ccc(Cl)cc1)NC1CCC(NC(=O)COc2ccc(Cl)cc2)CC1 (stereo not shown) [ISRIB] | can prevent hearing loss in mice from noise exposure

system: CHOP; assay: ER stress induction in HEK cells treated with compounds (CHOP mRNA, qPCR); assay type: cell-based; conditions: HEK 293 cells, 0.5 μM thapsigargin and 0.1 to 5.0 μM of each drug for 2 hours; CHOP mRNA by qPCR, ΔΔCt vs GAPDH
Method: HEK 293 cells were cultured in DMEM with 10% FBS, Pen/Strep in 5% CO2, at 37° C. in incubator. Cells were split and seeded at approximately 2×10^4 cells in each well of 96-well plate one day before treatment. Cells were grown in good shape and passaged one or two times before testing.
Cells were treated with 0.5 μM thapsigargin and 0.1 to 5.0 μM of each drug for 2 hours. The cells were then harvested, pelleted and treated to ready for testing mRNA abundance for specific UPR genes from cells in the PCR reaction using the TaqMan™ Gene Expression Cells-to-CT™ Kit (Thermo Fisher). Prescreened primers were ordered from Bio-Rad. The gene tested is CHOP, (the C/EBP Homologous Protein). These markers were compared against GAPDH. The qPCR system we used was CFX 384 Real time (Bio-Rad). Samples were measured in triplicates and relative quantification, by the ΔΔCt-method, using GAPDH as reference. The biological results are summarized in Table 1 where A represents a greater than 50% reduction in CHOP signal in compound-treated versus untreated cells, B represents a 20% to 50% reduction in CHOP signal, and C represents a 1% to 20% reduction in CHOP signal.

Row | Structure (SMILES) | CHOP reduction
3 | Cc1ccc(OCC(=O)Nc2ccc(NC(=O)COc3ccc(C)cc3)nc2)cc1 [Compound B3, 2-(4-Methylphenoxy)-N-[6-[[2-(4-methylphenoxy)acetyl]amino]pyridin-3-yl]acetamide] | B (B represents a 20% to 50% reduction in CHOP signal)
4 | CC(C)(C)c1ccc(OCC(=O)Nc2ccc(NC(=O)COc3ccc(C(C)(C)C)cc3)c(Cl)c2)cc1 [Compound C8, N,N′-2-Chlorobenzene-1,4-diylbis[2-(4-tert-butylphenoxy)acetamide]] | B (B represents a 20% to 50% reduction in CHOP signal)
5 | O=C(COc1ccccc1)Nc1ccc(NC(=O)COc2ccccc2)c(Cl)c1 [Compound C5, 2-Phenoxy-N-[2-chloro-4-(2-phenoxyacetylamino)phenyl]acetamide] | B (B represents a 20% to 50% reduction in CHOP signal)
6 | Cc1ccc(OCC(=O)Nc2ccc(NC(=O)COc3ccc(C)cc3)cc2)cc1 [Compound A4, N,N′-Benzene-1,4-diylbis [2-(4-methylphenoxy)acetamide]] | C (C represents a 1% to 20% reduction in CHOP signal)
7 | O=C(COc1ccc(Cl)cc1)Nc1ccc(NC(=O)COc2ccc(Cl)cc2)nc1 [Compound B2, 2-(4-Chlorophenoxy)-N-[6-[[2-(4-chlorophenoxy)acetyl]amino]pyridin-3-yl]acetamide] | A (A represents a greater than 50% reduction in CHOP signal in compound-treated versus untreated cells)
8 | O=C(COc1ccc(Cl)cc1)Nc1cnc(NC(=O)COc2ccc(Cl)cc2)c(Br)c1 [Compound B5, 2-(4-Chlorophenoxy)-N-[5-bromo-6-[[2-(4-chlorophenoxy)acetyl]amino]pyridin-3-yl]acetamide] | C (C represents a 1% to 20% reduction in CHOP signal)
9 | O=C(COc1ccccc1)Nc1cnc(NC(=O)COc2ccccc2)c(Br)c1 [Compound B4, 2-Phenoxy-N-[5-bromo-6-[[2-phenoxyacetyl]amino]pyridin-3-yl]acetamide] | C (C represents a 1% to 20% reduction in CHOP signal)
10 | Cc1cc(NC(=O)COc2ccc(Cl)cc2)ccc1NC(=O)COc1ccc(Cl)cc1 [Compound C2, 2-(4-Chlorophenoxy)-N-[2-methyl-4-[[2-(4-chlorophenoxy)acetyl]amino]phenyl]acetamide] | A (A represents a greater than 50% reduction in CHOP signal in compound-treated versus untreated cells)
11 | CC(C)(C)c1ccc(OCC(=O)Nc2ccc(NC(=O)COc3ccc(C(C)(C)C)cc3)cc2)cc1 [Compound A3, N,N′-Benzene-1,4-diylbis [2-(4-tert-butylphenoxy)acetamide]] | C (C represents a 1% to 20% reduction in CHOP signal)
12 | Cc1ccc(OCC(=O)Nc2ccc(NC(=O)COc3ccc(C)cc3)c(Cl)c2)cc1 [Compound C7, N,N′-2-Chlorobenzene-1,4-diylbis[2-(4-methylphenoxy)acetamide]] | C (C represents a 1% to 20% reduction in CHOP signal)
13 | O=C(COc1ccccc1)Nc1ccc(NC(=O)COc2ccccc2)nc1 [Compound B1, 2-Phenoxy-N-[6-[[2-phenoxyacetyl]amino]pyridin-3-yl]acetamide] | C (C represents a 1% to 20% reduction in CHOP signal)
14 | CC(C)(C)c1ccc(OCC(=O)Nc2cnc(NC(=O)COc3ccc(C(C)(C)C)cc3)c(Br)c2)cc1 [Compound B7, 2-(4-tert-Butylphenoxy)-N-[5-bromo-6-[[2-(4-tert-butylphenoxy)acetyl]amino]pyridin-3-yl]acetamide] | B (B represents a 20% to 50% reduction in CHOP signal)
15 | O=C(COc1ccc(Cl)cc1)Nc1ccc(NC(=O)COc2ccc(Cl)cc2)cc1 [Compound A2, 2-(4-Chlorophenoxy)-N-[4-[[2-(4-chlorophenoxy)acetyl]amino]phenyl]acetamide] | B (B represents a 20% to 50% reduction in CHOP signal)
16 | O=C(COc1ccc(Cl)cc1)Nc1ccc(NC(=O)COc2ccc(Cl)cc2)c(Cl)c1 [Compound C6, 2-(4-Chlorophenoxy)-N-[2-chloro-4-[[2-(4-chlorophenoxy)acetyl]amino]phenyl]acetamide] | A (A represents a greater than 50% reduction in CHOP signal in compound-treated versus untreated cells)
17 | Cc1ccc(OCC(=O)Nc2cnc(NC(=O)COc3ccc(C)cc3)c(Br)c2)cc1 [Compound B6, 2-(4-Methylphenoxy)-N-[5-bromo-6-[[2-(4-methylphenoxy)acetyl]amino]pyridin-3-yl]acetamide] | C (C represents a 1% to 20% reduction in CHOP signal)
18 | Cc1cc(NC(=O)COc2ccccc2)ccc1NC(=O)COc1ccccc1 [Compound C1, 2-Phenoxy-N-[2-methyl-4-(2-phenoxyacetylamino)phenyl]acetamide] | B (B represents a 20% to 50% reduction in CHOP signal)
19 | O=C(COc1ccccc1)Nc1ccc(NC(=O)COc2ccccc2)cc1 [Compound A1, 2-Phenoxy-N-[4-(2-phenoxyacetylamino)phenyl]acetamide] | A (A represents a greater than 50% reduction in CHOP signal in compound-treated versus untreated cells)
